Counter-ions that a name gives are not always drawn.

Turning to `CCN(CC)CCOc1ccc(NC(=O)C#Cc2ccc(Cl)cc2Cl)cc1OC` (as salt: hydrochloride) [Example 4.7, 3-(2,4-dichlorophenyl)propynoic acid-[3-methoxy-4-(2-diethylaminoethoxy)phenyl]amide hydrochloride], the melting point was 205 to 207 °C.
In the case of `COC1CCN(Cc2ccc(/C=C/C(=O)Nc3ccc(-c4ccc(Cl)cc4)cc3)cc2)CC1` [Example 5.4, (E)-N-(4′-chlorobiphenyl-4-yl)-3-[4-(4-methoxypiperidin-1-ylmethyl)phenyl]acrylamide], the melting point is 205 to 206 °C.
Then `O=C(/C=C/c1ccc(CNC2CCCCC2)cc1)Nc1ccc(-c2ccc(Cl)cc2)cc1` [Example 5.33, (E)-N-(4′-chlorobiphenyl-4-yl)-3-(4-cyclohexylaminomethylphenyl)acrylamide], with 247 to 248 °C; and `O=C(CCc1ccc(CN2CC[C@H](O)C2)cc1)Nc1ccc(-c2ccc(Cl)cc2)cc1` [Example 6.7, N-(4′-chlorobiphenyl-4-yl)-3-[4-((S)-3-hydroxypyrrolidin-1-ylmethyl)phenyl]propionamide], with 171 to 172 °C.
Molecule `COc1ccc(-c2ccc(NC(=O)C#Cc3ccc(CN4CCCCC4)cc3)cc2)cc1` [Example 1.8, 3-(4-piperidin-1-ylmethylphenyl)propynoic acid-(4′-methoxybiphenyl-4-yl)amide] had a melting point of 170 °C.
In the case of `CN(Cc1ccc(CCC(=O)Nc2ccc(-c3ccc(Cl)cc3)cc2)cc1)CC1CCOCC1` [Example 6.19, N-(4′-chlorobiphenyl-4-yl)-3-(4-{[methyl-(tetrahydropyran-4-ylmethyl)amino]methyl}phenyl)propionamide] it was 162 to 163 °C; in that of `O=C(C#Cc1ccc(C(F)(F)F)cc1Cl)Nc1ccc2nc(N3CCCCC3)ccc2c1` [Example 7.1, 3-(2-chloro-4-trifluoromethylphenyl)propynoic acid-(2-piperidin-1-ylquinolin-6-yl)amide], 176 to 179 °C; in that of `O=C(C#Cc1ccc(C(F)(F)F)cc1Cl)Nc1ccc2c(ccn2CCN2CCCC2)c1` [Example 4.11, 3-(2-chloro-4-trifluoromethylphenyl)propynoic acid-[1-(2-pyrrolidin-1-ylethyl)-1H-indol-5-yl]amide], 200 to 205 °C.
`CC(C)Nc1ccc2cc(NC(=O)C#Cc3ccc(C(F)(F)F)cc3Cl)ccc2n1` [Example 7.2, 3-(2-chloro-4-trifluoromethylphenyl)propynoic acid-(2-isopropylaminoquinolin-6-yl)amide] returned a melting point of 57 to 60 °C.
Consider `COCCN(C)Cc1ccc(CCC(=O)Nc2ccc(-c3ccc(Cl)cc3)cc2)cc1` [Example 6.17, N-(4′-chlorobiphenyl-4-yl)-3-(4-{[(2-methoxyethyl)methylamino]methyl}phenyl)propionamide], for which the melting point turned out to be 138 °C.
In the case of `CCN(CC)CCOc1ccc(NC(=O)C#Cc2ccc(Cl)cc2Cl)cc1` [Example 3.4, 3-(2,4-dichlorophenyl)propynoic acid-[4-(2-diethylaminoethoxy)phenyl]amide] it was 107 to 109 °C; in that of `COC1CCN(Cc2ccc(CCC(=O)Nc3ccc(-c4ccc(Cl)cc4)cc3)cc2)CC1` [Example 6.3, N-(4′-chlorobiphenyl-4-yl)-3-[4-(4-methoxypiperidin-1-ylmethyl)phenyl]propionamide], 143 to 144 °C; in that of `CN(C(=O)C#Cc1ccc(CN2CCC(N3CCCC3)CC2)cc1)c1ccc(-c2ccc(Cl)cc2)cc1` (as salt: trifluoroacetate) [Example 1.24, 3-[4-(4-pyrrolidin-1-ylpiperidin-1-ylmethyl)phenyl]propynoic acid-(4′-chlorobiphenyl-4-yl)methylamideditrifluoroacetate], 161 to 164 °C.
Then `O=C(C#Cc1ccc(Cl)cc1)Nc1ccc2c(ccn2CCN2CCCC2)c1` [Example 4.9, 3-(4-chlorophenyl)propynoic acid-[1-(2-pyrrolidin-1-ylethyl)-1H-indol-5-yl]amide], with 135 to 144 °C.

Source of the values: US7592373B2 (Boehringer Ingelheim International GmbH, priority 2003, dated 2009).
